From patent US20170050957A1, “4-AMINO-6-(HETEROCYCLIC)PICOLINATES AND 6-AMINO-2-(HETEROCYCLIC)PYRIMIDINE-4-CARBOXYLATES AND THEIR USE AS HERBICIDES” (Dow AgroSciences LLC, priority 2013, published 2017)
Read-outs that look alike come from different tables or passages of the source.

Legend:
[1] = test system: Key Grass and Sedge Weeds as well as Grass Crops; assay: Post-emergent Test II herbicidal activity (Table 16); type: in vivo; conditions: post-emergence, 336 h, 14 d; for pest or weed control at 35 g/ha: 35 g ai/ha; for pest or weed control at 70 g/ha: 70 g ai/ha; for pest or weed control at 140 g/ha: 140 g ai/ha
Procedure, shortened: (§1)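 Greenhouse-grown seedlings at first/second true leaf receive a track spray at 187 L/ha, using a highest rate plus two-fold serial dilutions down to 1/16×. Watering is by subirrigation to avoid wash-off. Percent injury (0-100) is judged by eye at 14 d against untreated plants.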

[2] = test system: Key Broadleaf Weed and Crop Species; assay: Post-emergent Test II herbicidal activity (Table 15); type: in vivo; conditions: post-emergence, 336 h, 14 d; for pest or weed control at 35 g/ha: 35 g ai/ha; for pest or weed control at 70 g/ha: 70 g ai/ha; for pest or weed control at 140 g/ha: 140 g ai/ha
Procedure, shortened: as §1

[3] = Cyperus esculentus, yellow nutsedge (Cyperus esculentus), read-out: Visual Growth Reduction (%) 14 Days After Application, CYPES
[4] = Echinochloa crus-galli, barnyardgrass (Echinochloa crus-galli), read-out: Visual Growth Reduction (%) 14 Days After Application, ECHCG
[5] = Oryza sativa, rice (Oryza sativa), read-out: Visual Growth Reduction (%) 14 Days After Application, ORYSA
[6] = Setaria faberi, giant foxtail (Setaria faberi), read-out: Visual Growth Reduction (%) 14 Days After Application, SETFA
[7] = Triticum aestivum, wheat, spring (Triticum aestivum), read-out: Visual Growth Reduction (%) 14 Days After Application, TRZAS
[8] = Zea mays, maize, corn (Zea mays), read-out: Visual Growth Reduction (%) 14 Days After Application, ZEAMX
[9] = Abutilon theophrasti, velvetleaf (Abutilon theophrasti), read-out: Visual Growth Reduction (%) 14 Days After Application, ABUTH
[10] = Amaranthus retroflexus, redroot pigweed (Amaranthus retroflexus), read-out: Visual Growth Reduction (%) 14 Days After Application, AMARE
[11] = Brassica napus, oilseed rape, canola (Brassica napus), read-out: Visual Growth Reduction (%) 14 Days After Application, BRSNN
[12] = Chenopodium album, lambsquarters (Chenopodium album), read-out: Visual Growth Reduction (%) 14 Days After Application, CHEAL
[13] = Euphorbia heterophylla, wild poinsettia (Euphorbia heterophylla), read-out: Visual Growth Reduction (%) 14 Days After Application, EPHHL
[14] = Helianthus annuus, sunflower (Helianthus annuus), read-out: Visual Growth Reduction (%) 14 Days After Application, HELAN

COc1c(N)nc(-c2ccc3cc[nH]c3c2F)nc1C(=O)O [Compound 1.35]
45 to 59%: pest or weed control at 140 g/ha [1, 7]
75 to 84%: pest or weed control at 35 g/ha [2, 10] | pest or weed control at 35 g/ha [2, 13] | pest or weed control at 70 g/ha [2, 13]
0 to 29%: pest or weed control at 35 g/ha [1, 3] | pest or weed control at 70 g/ha [1, 3] | pest or weed control at 140 g/ha [1, 3] | pest or weed control at 35 g/ha [1, 4] | pest or weed control at 70 g/ha [1, 4] | pest or weed control at 140 g/ha [1, 4] | pest or weed control at 35 g/ha [1, 5] | pest or weed control at 70 g/ha [1, 5] | pest or weed control at 140 g/ha [1, 5] | pest or weed control at 35 g/ha [1, 6] | pest or weed control at 70 g/ha [1, 6] | pest or weed control at 140 g/ha [1, 6] | pest or weed control at 35 g/ha [1, 7] | pest or weed control at 35 g/ha [1, 8] | pest or weed control at 70 g/ha [1, 8] | pest or weed control at 140 g/ha [1, 8] | pest or weed control at 35 g/ha [2, 9] | pest or weed control at 70 g/ha [2, 9] | pest or weed control at 140 g/ha [2, 9] | pest or weed control at 35 g/ha [2, 12] | pest or weed control at 70 g/ha [2, 12]
60 to 74%: pest or weed control at 70 g/ha [2, 14]
85 to 94%: pest or weed control at 70 g/ha [2, 10] | pest or weed control at 140 g/ha [2, 12] | pest or weed control at 140 g/ha [2, 13]
95 to 100%: pest or weed control at 140 g/ha [2, 10] | pest or weed control at 35 g/ha [2, 11] | pest or weed control at 70 g/ha [2, 11] | pest or weed control at 140 g/ha [2, 11] | pest or weed control at 140 g/ha [2, 14]
30 to 44%: pest or weed control at 70 g/ha [1, 7] | pest or weed control at 35 g/ha [2, 14]

Nc1c(F)c(-c2ccc(Cl)c3occc23)nc(C(=O)O)c1Cl [Compound 2.18]
95 to 100%: pest or weed control at 35 g/ha [2, 10] | pest or weed control at 70 g/ha [2, 10] | pest or weed control at 140 g/ha [2, 10]
45 to 59%: pest or weed control at 35 g/ha [2, 11]
0 to 29%: pest or weed control at 35 g/ha [1, 3] | pest or weed control at 70 g/ha [1, 3] | pest or weed control at 140 g/ha [1, 3] | pest or weed control at 35 g/ha [1, 4] | pest or weed control at 70 g/ha [1, 4] | pest or weed control at 140 g/ha [1, 4] | pest or weed control at 35 g/ha [1, 5] | pest or weed control at 70 g/ha [1, 5] | pest or weed control at 140 g/ha [1, 5] | pest or weed control at 35 g/ha [1, 6] | pest or weed control at 70 g/ha [1, 6] | pest or weed control at 140 g/ha [1, 6] | pest or weed control at 35 g/ha [1, 7] | pest or weed control at 70 g/ha [1, 7] | pest or weed control at 140 g/ha [1, 7] | pest or weed control at 35 g/ha [1, 8] | pest or weed control at 70 g/ha [1, 8] | pest or weed control at 140 g/ha [1, 8] | pest or weed control at 35 g/ha [2, 9] | pest or weed control at 70 g/ha [2, 9] | pest or weed control at 140 g/ha [2, 9] | pest or weed control at 35 g/ha [2, 13] | pest or weed control at 70 g/ha [2, 13] | pest or weed control at 140 g/ha [2, 13]
60 to 74%: pest or weed control at 70 g/ha [2, 11] | pest or weed control at 140 g/ha [2, 11]
75 to 84%: pest or weed control at 35 g/ha [2, 14] | pest or weed control at 70 g/ha [2, 14]
85 to 94%: pest or weed control at 35 g/ha [2, 12] | pest or weed control at 70 g/ha [2, 12] | pest or weed control at 140 g/ha [2, 12] | pest or weed control at 140 g/ha [2, 14]
